# Assay results as given in PMC11083148, “Structure–Activity Relationship Studies on Highly Functionalized Pyrazole Hydrazones and Amides as Antiproliferative and Antioxidant Agents” (International Journal of Molecular Sciences, 2024).
# Experiments:
# MDA-MB-435 = experiment: NCI screening, Melanoma; format: cell-based; settings: MDA-MB-435, Melanoma; 10 µM; negative values indicate lethality
# Description: (§1) In addition, 11a and 17 (representative compounds of the acylhydrazone and amide series) were selected by the National Cancer Institute (NCI, Germantown, MD, USA) and tested at a fixed concentration of 10 µM against a panel of fifty-nine different cancer cell lines, including highly metastatic tumors (Table 2).
# LOX IMVI = experiment: NCI screening, Melanoma; format: cell-based; settings: 10 µM
# Description: as §1
# M14 = experiment: NCI screening, Melanoma; format: cell-based; settings: 10 µM
# Description: as §1
# NCI-H23 = experiment: NCI screening, Non-Small Cell Lung Cancer; format: cell-based; settings: 10 µM
# Description: as §1
# NCI-H322M = experiment: NCI screening, Non-Small Cell Lung Cancer; format: cell-based; settings: 10 µM
# Description: as §1
# EKVX = experiment: NCI screening, Non-Small Cell Lung Cancer; format: cell-based; settings: 10 µM
# Description: as §1
# HOP-62 = experiment: NCI screening, Non-Small Cell Lung Cancer; format: cell-based; settings: HOP-62, Non-Small Cell Lung Cancer; 10 µM
# Description: as §1
# NCI-H226 = experiment: NCI screening, Non-Small Cell Lung Cancer; format: cell-based; settings: 10 µM
# Description: as §1
# HOP-92 = experiment: NCI screening, Non-Small Cell Lung Cancer; format: cell-based; settings: HOP-92, Non-Small Cell Lung Cancer; 10 µM
# Description: as §1
# A549/ATCC = experiment: NCI screening, Non-Small Cell Lung Cancer; format: cell-based; settings: 10 µM
# Description: as §1
# washed platelets = experiment: Platelet aggregation (thrombin-induced, Born's method); format: cell-based; settings: Homo sapiens, 0.1 U/mL thrombin, mean ± SD, read-out: IC50 Aggregation inhibition
# Procedure, shortened: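 Washed human platelets (3.0 × 10^8/mL) were preincubated with compound at 37 °C for 3 min. Aggregation was then triggered with 0.1 U/mL thrombin and measured by Born's turbidimetric method, with IC50 values calculated from the response.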
# HS 578T = experiment: NCI screening, Breast Cancer; format: cell-based; settings: 10 µM
# Description: as §1
# MDA-MB-468 = experiment: NCI screening, Breast Cancer; format: cell-based; settings: MDA-MB-468, Breast Cancer; 10 µM; negative values indicate lethality
# Description: as §1
# MCF7 = experiment: NCI screening, Breast Cancer; format: cell-based; settings: 10 µM
# Description: as §1
# RPMI-8226 = experiment: NCI screening, Leukemia; format: cell-based; settings: RPMI-8226, Leukemia; 10 µM
# Description: as §1
# CCRF-CEM = experiment: NCI screening, Leukemia; format: cell-based; settings: 10 µM
# Description: as §1
# SR = experiment: NCI screening, Leukemia; format: cell-based; settings: 10 µM
# Description: as §1
# K-562 = experiment: NCI screening, Leukemia; format: cell-based; settings: K-562, Leukemia; 10 µM
# Description: as §1
# MOLT-4 = experiment: NCI screening, Leukemia; format: cell-based; settings: MOLT-4, Leukemia; 10 µM
# Description: as §1
# HL-60(TB) = experiment: NCI screening, Leukemia; format: cell-based; settings: 10 µM
# Description: as §1
# GM-6114 = experiment: MTT assay, cytotoxicity on normal fibroblasts; format: cell-based; settings: human, 48 h, 10 µM
# Description: Pyrazole acylhydrazones 10–13 and amides 14–22 were tested by MTT assay to evaluate their antiproliferative and cytotoxicity properties against a panel of eight tumor cell lines and normal fibroblasts.
# The following cell lines were used for MTT assays: SKOV-3 (ovarian adenocarcinoma, ATCC, Manassas, VA, USA); MCF-7 (breast adenocarcinoma, Biologic Bank and Cell Factory, IRCCS Policlinico San Martino, Genoa, Italy); Hep-G2 (hepatocellular carcinoma, ATCC, Manassas, VA, USA); SK-MEL28 (skin melanoma, Biologic Bank and Cell Factory, IRCCS Policlinico San Martino, Genoa, Italy), GM-6114 (embryonic human fibroblast, ATCC, Manassas, VA, USA); MDA-MB231 (breast adenocarcinoma, Biologic Bank and Cell Factory, IRCCS Policlinico San Martino, Genoa, Italy); HeLa (cervical adenocarcinoma, Biologic Bank and Cell Factory, IRCCS Policlinico San Martino, Genoa, Italy); SK-BR3 (breast andenocarcinoma, Biologic Bank and Cell Factory, IRCCS Policlinico San Martino, Genoa, Italy); A549 (lung carcinoma, Biologic Bank and Cell Factory, IRCCS Policlinico San Martino, Genoa, Italy); HUVEC (Human Umbilical Vein Endothelial Cells, ATCC, Manassas, VA, USA). All cell lines were grown in their medium with 10% FBS, 2 mM Glutamine, and 1% penstrep and incubated at 37 °C in 5% CO2 in a humidified environment. The cell lines were plated in 96-well plates at an adequate number to reach 80–90% confluence at the end of the assay. 16 h after cell plating, a 10 mM DMSO stock solution of the compounds was diluted in growth medium and added at a final working concentration of 10 μM. After 48h of incubation, a 2 mg/mL PBS solution of MTT (3-(4,5-dimethyl-2-thiazolyl)-2,5-diphenyl-2H-tetrazolium bromide) was added (30 μL/well). After 4h, the supernatant was removed, and the Formazan precipitates were dissolved in DMSO (100 μL/well). The 96-well plates were incubated for 20 min, and absorbance was measured at 570 nm using a plate reader. The results are expressed as a percentage ratio over control samples (100%) in which the cells were incubated with the same amount of DMSO but without compounds. Each value is the mean of three independent experiments run in six replicates.
# HT29 = experiment: NCI screening, Colon Cancer; format: cell-based; settings: 10 µM
# Description: as §1
# HCT-116 = experiment: NCI screening, Colon Cancer; format: cell-based; settings: HCT-116, Colon Cancer; 10 µM
# Description: as §1
# HCT-15 = experiment: NCI screening, Colon Cancer; format: cell-based; settings: HCT-15, Colon Cancer; 10 µM
# Description: as §1
# SW-620 = experiment: NCI screening, Colon Cancer; format: cell-based; settings: SW-620, Colon Cancer; 10 µM
# Description: as §1
# [1] = DPPH radical-scavenging activity; format: physicochemical; set-up: AA (%), percentage of antioxidant activity: concentration or dose not given beside the values; settings: mean ± SD, n = 2
# Description: The antioxidant activity of the representative compounds of the two series (namely, acylhydrazones 10b, 11a, 11d, 12d, 13d, and amides 14, 22) was measured in vitro using the 2,2-diphenyl-1-picrylhydrazyl (DPPH) assay. The results were calculated as Trolox equivalent and expressed as a percentage of antioxidant activity (AA) (Table 3). […] Derivatives 10b and 12d were endowed with the highest antioxidant activity, thus highlighting the relevance of both pyrazole N1 and acylhydrazone substituents on compounds’ radical scavenging properties.
# Compounds 10b, 11a, 11d, 12d, 13d, 14, and 22 (ca. 3 mg) were dissolved in DMSO (1 mL), and then 100 µL of this solution was mixed with 3.9 mL of DPPH methanol solution (65 µM). Absorbance was measured at 517 nm after reacting for 30 min in the dark. The linear calibration curve was obtained using Trolox standards (ranging between 20 and 200 mg/L, R^2 = 0.9955). The result was calculated as Trolox equivalent in mg/L, and the percentage of antioxidant activity (AA%) was calculated from the ratio of decreasing absorbance of sample solution (A0 − As) to absorbance of blank DPPH solution (A0), as expressed in Equation (1). (1) AA%=A0−As/A0×100
# All analyses were carried out in duplicate (n = 2), and values are given as means ± standard deviation (SD).
SMILES,Growth Percentage (%) (NCI-H23),Growth Percentage (%) (NCI-H322M),Growth Percentage (%) (EKVX),Growth Percentage (%) (HOP-62),Growth Percentage (%) (NCI-H226),Growth Percentage (%) (HOP-92),Growth Percentage (%) (A549/ATCC),IC50 (washed platelets) [µM],Growth Percentage (%) (RPMI-8226),Growth Percentage (%) (CCRF-CEM),Growth Percentage (%) (MOLT-4),Mean Growth Percentage (GM-6114) [%],also measured
"CCOC(=O)c1c(NC(=O)C2CC2)nn(C)c1Nc1ccccc1 [compound 17, Ethyl 3-(cyclopropanecarboxamido)-1-methyl-5-(phenylamino)-1H-pyrazole-4-carboxylate]",98.44,94.41,96.82,110.36,98.86,81.47,101.59,460,99.62,97.75,101.92,65.92,Growth Percentage (%) (MDA-MB-435): 101.76%; Growth Percentage (%) (LOX IMVI): 102.01%; Growth Percentage (%) (M14): 102.31%; Growth Percentage (%) (HS 578T): 96.86%; Growth Percentage (%) (MDA-MB-468): 102.11%; Growth Percentage (%) (MCF7): 92.37%; Growth Percentage (%) (SR): 94.23%; Growth Percentage (%) (K-562): 96.41%; Growth Percentage (%) (HL-60(TB)): 96.44%; Growth Percentage (%) (HT29): 99.47%; Growth Percentage (%) (HCT-116): 104.12%; Growth Percentage (%) (HCT-15): 96.95%; Growth Percentage (%) (SW-620): 94.82%
"COc1ccc(/C=N/NC(=O)c2c(N)nn(C)c2Nc2ccccc2)cc1 [11a, (E)-3-amino-N′-(4-methoxybenzylidene)-1-methyl-5-(phenylamino)-1H-pyrazole-4-carbohydrazide]",66.86,89.96,69.71,38.79,51.61,46.79,57.09,183 ± 13,61.65,38.45,49.41,69.81,"AA (%), percentage of antioxidant activity [1]: 25.56 ± 2.44%; DPPH (%) [1]: 74.44 ± 2.44%"
